Columns and labels:
Assay type in all cases: cell-based
[1] = tested on: Staphylococcus aureus FDA209P; assay: Antibacterial test (MIC), Staphylococcus aureus FDA209P
Source text: (§1) The following is media and compounds employed in the antibacterial test.
(§2) TSA=Trypticase soy agar [Baltimore Biologicals (U.S.A.)]
(§3) B-TSA=Blood trypticase soy agar

[2] = tested on: Staphylococcus aureus 308A-1; assay: Antibacterial test (MIC), Staphylococcus aureus 308A-1; settings: for Minimum inhibitory concentration (MIC): medium TSA
Source text: as §1, §2, §3

[3] = tested on: Staphylococcus aureus 1840; assay: Antibacterial test (MIC), Staphylococcus aureus 1840; settings: for Minimum inhibitory concentration (MIC): medium TSA
Source text: as §1, §2, §3

[4] = tested on: Escherichia coli NIHJ JC-2; assay: Antibacterial test (MIC), Escherichia coli NIHJ JC-2; settings: for Minimum inhibitory concentration (MIC): medium TSA
Source text: as §1, §2, §3

Escherichia coli 0-111 = assay: Antibacterial test (MIC), Escherichia coli 0-111; settings: medium TSA
Source text: as §1, §2, §3

Escherichia coli T-7 = assay: Antibacterial test (MIC), Escherichia coli T-7; settings: medium TSA
Source text: as §1, §2, §3

[5] = tested on: Citrobacter freundii IFO 12681; assay: Antibacterial test (MIC), Citrobacter freundii IFO 12681; settings: for Minimum inhibitory concentration (MIC): medium TSA
Source text: as §1, §2, §3

Klebsiella pneumoniae DT = assay: Antibacterial test (MIC), Klebsiella pneumoniae DT; settings: for Minimum inhibitory concentration (MIC): medium TSA
Source text: as §1, §2, §3

[6] = tested on: Enterobacter cloacae IFO 12937; assay: Antibacterial test (MIC), Enterobacter cloacae IFO 12937; settings: for Minimum inhibitory concentration (MIC): medium TSA
Source text: as §1, §2, §3

[7] = tested on: Serratia marcescens IFO 12648; assay: Antibacterial test (MIC), Serratia marcescens IFO 12648; settings: for Minimum inhibitory concentration (MIC): medium TSA
Source text: as §1, §2, §3

[8] = tested on: Proteus vulgaris IFO 3988; assay: Antibacterial test (MIC), Proteus vulgaris IFO 3988; settings: for Minimum inhibitory concentration (MIC): medium TSA
Source text: as §1, §2, §3

[9] = tested on: Proteus mirabilis IFO 3849; assay: Antibacterial test (MIC), Proteus mirabilis IFO 3849; settings: for Minimum inhibitory concentration (MIC): medium TSA
Source text: as §1, §2, §3

[10] = tested on: Proteus morganii IFO 3168; assay: Antibacterial test (MIC), Proteus morganii IFO 3168; settings: for Minimum inhibitory concentration (MIC): medium TSA
Source text: as §1, §2, §3

[11] = tested on: Pseudomonas aeruginosa IFO 3455; assay: Antibacterial test (MIC), Pseudomonas aeruginosa IFO 3455; settings: for Minimum inhibitory concentration (MIC): medium TSA
Source text: as §1, §2, §3

[12] = tested on: Pseudomonas aeruginosa U 31; assay: Antibacterial test (MIC), Pseudomonas aeruginosa U 31; settings: for Minimum inhibitory concentration (MIC): medium TSA
Source text: as §1, §2, §3

[13] = tested on: Acinetobacter calcoaceticus IFO 13006; assay: Antibacterial test (MIC), Acinetobacter calcoaceticus IFO 13006; settings: for Minimum inhibitory concentration (MIC): medium TSA
Source text: as §1, §2, §3

Candida albicans TA = assay: Antibacterial test (MIC), Candida albicans TA; settings: for Minimum inhibitory concentration (MIC): medium TSA
Source text: as §1, §2, §3

[14] = tested on: Streptococcus pyogenes E-14; assay: Antibacterial test (MIC), Streptococcus pyogenes E-14; settings: for Minimum inhibitory concentration (MIC): medium B-TSA
Source text: as §1, §2, §3

[15] = tested on: Streptococcus pyogenes S-8; assay: Antibacterial test (MIC), Streptococcus pyogenes S-8; settings: for Minimum inhibitory concentration (MIC): medium B-TSA
Source text: as §1, §2, §3

[16] = tested on: Streptococcus mitis America; assay: Antibacterial test (MIC), Streptococcus mitis America; settings: for Minimum inhibitory concentration (MIC): medium B-TSA
Source text: as §1, §2, §3

[17] = tested on: Streptococcus faecium IFO 3128; assay: Antibacterial test (MIC), Streptococcus faecium IFO 3128; settings: for Minimum inhibitory concentration (MIC): medium B-TSA
Source text: as §1, §2, §3

[18] = tested on: Streptococcus pneumoniae Type I; assay: Antibacterial test (MIC), Streptococcus pneumoniae Type I; settings: for Minimum inhibitory concentration (MIC): medium B-TSA
Source text: as §1, §2, §3

[19] = tested on: Corynebacterium diphtheriae Toronto; assay: Antibacterial test (MIC), Corynebacterium diphtheriae Toronto; settings: for Minimum inhibitory concentration (MIC): medium B-TSA
Source text: as §1, §2, §3

[20] = tested on: Bordetella bronchiseptica Sagami; assay: Antibacterial test (MIC), Bordetella bronchiseptica Sagami; settings: for Minimum inhibitory concentration (MIC): medium B-TSA
Source text: as §1, §2, §3

`CON=C(C(=O)NC1CN(S(=O)(=O)[O-])C1=O)c1csc(N)n1.[Na+]` (centres unmarked) [Compound A, Sodium 3-[2-(2-amino-4-thiazolyl)-2-methoxyiminoacetamido]-2-oxoazetidine-1-sulfonate] was tested, and the MIC ([1]; Staphylococcus aureus, FDA209P, read-out: Minimum inhibitory concentration (MIC)) was 50 µg/mL, the “Minimum inhibitory concentration (MIC)” value ([1]; medium B-TSA) was 50 µg/mL and the MIC ([2]; Staphylococcus aureus, 308A1, read-out: Minimum inhibitory concentration (MIC)) was 25 µg/mL. The MIC ([3]; Staphylococcus aureus, 1840, read-out: Minimum inhibitory concentration (MIC)) was 100 µg/mL, the MIC ([4]; Escherichia coli, NIHJJC2, read-out: Minimum inhibitory concentration (MIC)) was 0.78 µg/mL and the MIC (Escherichia coli 0-111; Escherichia coli, 0111, read-out: Minimum inhibitory concentration (MIC)) was 0.39 µg/mL. For the same compound, the MIC (Escherichia coli T-7; Escherichia coli, T7, read-out: Minimum inhibitory concentration (MIC)) was greater than 100 µg/mL, the MIC ([5]; Citrobacter freundii, IFO12681, read-out: Minimum inhibitory concentration (MIC)) was 1.56 µg/mL and the MIC (Klebsiella pneumoniae DT; Klebsiella pneumoniae, read-out: Minimum inhibitory concentration (MIC)) was 0.78 µg/mL. For the same compound, the MIC ([6]; Enterobacter cloacae, IFO12937, read-out: Minimum inhibitory concentration (MIC)) was greater than 100 µg/mL, the MIC ([7]; Serratia marcescens, IFO12648, read-out: Minimum inhibitory concentration (MIC)) was 12.5 µg/mL and the MIC ([8]; Proteus vulgaris, IFO3988, read-out: Minimum inhibitory concentration (MIC)) was 1.56 µg/mL. For the same compound, the MIC ([9]; Proteus mirabilis, IFO3849, read-out: Minimum inhibitory concentration (MIC)) was 6.25 µg/mL, the MIC ([10]; Morganella morganii, IFO3168, read-out: Minimum inhibitory concentration (MIC)) was 25 µg/mL and the MIC ([11]; Pseudomonas aeruginosa, IFO3455, read-out: Minimum inhibitory concentration (MIC)) was 6.25 µg/mL. The MIC ([12]; Pseudomonas aeruginosa, U31, read-out: Minimum inhibitory concentration (MIC)) was greater than 100 µg/mL, the MIC ([13]; Acinetobacter calcoaceticus, IFO13006, read-out: Minimum inhibitory concentration (MIC)) was 6.25 µg/mL and the MIC (Candida albicans TA; Candida albicans, read-out: Minimum inhibitory concentration (MIC)) was greater than 100 µg/mL. It also gave an MIC ([14]; Streptococcus pyogenes, E14, read-out: Minimum inhibitory concentration (MIC)) of 3.13 µg/mL, an MIC ([15]; Streptococcus pyogenes, S8, read-out: Minimum inhibitory concentration (MIC)) of 3.13 µg/mL and an MIC ([16]; Streptococcus mitis, read-out: Minimum inhibitory concentration (MIC)) of 25 µg/mL. For the same compound, the MIC ([17]; Enterococcus faecium, IFO3128, read-out: Minimum inhibitory concentration (MIC)) was greater than 100 µg/mL, the MIC ([18]; Streptococcus pneumoniae, read-out: Minimum inhibitory concentration (MIC)) was 12.5 µg/mL and the MIC ([19]; Corynebacterium diphtheriae, read-out: Minimum inhibitory concentration (MIC)) was 1.56 µg/mL. It also gave an MIC ([20]; Bordetella bronchiseptica, read-out: Minimum inhibitory concentration (MIC)) of 100 µg/mL.

With `CCN1CCN(C(=O)N[C@@H](C(=O)NC2CN(S(=O)(=O)[O-])C2=O)c2cccs2)C(=O)C1=O.[Na+]` (stereo partly drawn) [Compound F, Sodium 3-[D-2-(4-ethyl-2,3-dioxo-1-piperazinocarboxamido)-2-thienylacetamido]-2-oxoazetidine-1-sulfonate] the “Minimum inhibitory concentration (MIC)” value ([1]; medium B-TSA) was 6.25 µg/mL, the “Minimum inhibitory concentration (MIC)” value ([1]; medium TSA) was 6.25 µg/mL and the “Minimum inhibitory concentration (MIC)” value [2] was 6.25 µg/mL. The “Minimum inhibitory concentration (MIC)” value [3] was 25 µg/mL, the “Minimum inhibitory concentration (MIC)” value [4] was 0.78 µg/mL and the “Minimum inhibitory concentration (MIC)” value (Escherichia coli 0-111) was 0.2 µg/mL. For the same compound, the “Minimum inhibitory concentration (MIC)” value (Escherichia coli T-7) was greater than 100 µg/mL, the “Minimum inhibitory concentration (MIC)” value [5] was 1.56 µg/mL and the “Minimum inhibitory concentration (MIC)” value (Klebsiella pneumoniae DT) was 0.2 µg/mL. For the same compound, the “Minimum inhibitory concentration (MIC)” value [6] was 50 µg/mL, the “Minimum inhibitory concentration (MIC)” value [7] was 1.56 µg/mL and the “Minimum inhibitory concentration (MIC)” value [8] was less than 0.1 µg/mL. For the same compound, the “Minimum inhibitory concentration (MIC)” value [9] was 0.78 µg/mL, the “Minimum inhibitory concentration (MIC)” value [10] was 12.5 µg/mL and the “Minimum inhibitory concentration (MIC)” value [11] was 6.25 µg/mL. The “Minimum inhibitory concentration (MIC)” value [12] was greater than 100 µg/mL, the “Minimum inhibitory concentration (MIC)” value [13] was 25 µg/mL and the “Minimum inhibitory concentration (MIC)” value (Candida albicans TA) was greater than 100 µg/mL. For the same compound, the “Minimum inhibitory concentration (MIC)” value [14] was 3.13 µg/mL, the “Minimum inhibitory concentration (MIC)” value [15] was 3.13 µg/mL and the “Minimum inhibitory concentration (MIC)” value [16] was 25 µg/mL. For the same compound, the “Minimum inhibitory concentration (MIC)” value [17] was greater than 100 µg/mL, the “Minimum inhibitory concentration (MIC)” value [18] was 6.25 µg/mL and the “Minimum inhibitory concentration (MIC)” value [19] was 0.78 µg/mL. For the same compound, the “Minimum inhibitory concentration (MIC)” value [20] was greater than 100 µg/mL.

For `CCCCCCCCN1CCN(C(=O)NC(C(=O)NC2CN(S(=O)(=O)[O-])C2=O)c2cccs2)C(=O)C1=O.[Na+]` (centres unmarked) [Compound J, Sodium 3-[2-(4-n-octyl-2,3-dioxo-1-piperazinocarboxamido)-2-thienylacetamido]-2-oxoazetidine-1-sulfonate], the “Minimum inhibitory concentration (MIC)” value ([1]; medium B-TSA) was 3.13 µg/mL, the “Minimum inhibitory concentration (MIC)” value ([1]; medium TSA) was 1.56 µg/mL and the “Minimum inhibitory concentration (MIC)” value [2] was 1.56 µg/mL. For the same compound, the “Minimum inhibitory concentration (MIC)” value [3] was 6.25 µg/mL, the “Minimum inhibitory concentration (MIC)” value [4] was 3.13 µg/mL and the “Minimum inhibitory concentration (MIC)” value (Escherichia coli T-7) was greater than 100 µg/mL. The “Minimum inhibitory concentration (MIC)” value [5] was 3.13 µg/mL, the “Minimum inhibitory concentration (MIC)” value (Klebsiella pneumoniae DT) was 1.56 µg/mL and the “Minimum inhibitory concentration (MIC)” value [6] was 6.25 µg/mL. The “Minimum inhibitory concentration (MIC)” value [7] was 1.56 µg/mL, the “Minimum inhibitory concentration (MIC)” value [8] was 1.56 µg/mL and the “Minimum inhibitory concentration (MIC)” value [9] was 3.13 µg/mL. The “Minimum inhibitory concentration (MIC)” value [10] was 1.56 µg/mL, the “Minimum inhibitory concentration (MIC)” value [11] was 6.25 µg/mL and the “Minimum inhibitory concentration (MIC)” value [12] was 25 µg/mL. The “Minimum inhibitory concentration (MIC)” value [13] was 6.25 µg/mL, the “Minimum inhibitory concentration (MIC)” value (Candida albicans TA) was greater than 100 µg/mL and the “Minimum inhibitory concentration (MIC)” value [14] was 1.56 µg/mL. For the same compound, the “Minimum inhibitory concentration (MIC)” value [15] was 1.56 µg/mL, the “Minimum inhibitory concentration (MIC)” value [16] was 25 µg/mL and the “Minimum inhibitory concentration (MIC)” value [17] was greater than 100 µg/mL. For the same compound, the “Minimum inhibitory concentration (MIC)” value [18] was 1.56 µg/mL, the “Minimum inhibitory concentration (MIC)” value [19] was 0.78 µg/mL and the “Minimum inhibitory concentration (MIC)” value [20] was greater than 100 µg/mL.
